Assay [1] in a line: Inhibition of LFA1 expressed in human JY cells interaction with ICAM1-IG expressed in human HeLa cell monolayer after 45 mins by cell adhesion assay.
The next assay deals with T1, Integrin alpha-L (Homo sapiens, UniProt P20701).
T1 sequence (P20701 whole entry): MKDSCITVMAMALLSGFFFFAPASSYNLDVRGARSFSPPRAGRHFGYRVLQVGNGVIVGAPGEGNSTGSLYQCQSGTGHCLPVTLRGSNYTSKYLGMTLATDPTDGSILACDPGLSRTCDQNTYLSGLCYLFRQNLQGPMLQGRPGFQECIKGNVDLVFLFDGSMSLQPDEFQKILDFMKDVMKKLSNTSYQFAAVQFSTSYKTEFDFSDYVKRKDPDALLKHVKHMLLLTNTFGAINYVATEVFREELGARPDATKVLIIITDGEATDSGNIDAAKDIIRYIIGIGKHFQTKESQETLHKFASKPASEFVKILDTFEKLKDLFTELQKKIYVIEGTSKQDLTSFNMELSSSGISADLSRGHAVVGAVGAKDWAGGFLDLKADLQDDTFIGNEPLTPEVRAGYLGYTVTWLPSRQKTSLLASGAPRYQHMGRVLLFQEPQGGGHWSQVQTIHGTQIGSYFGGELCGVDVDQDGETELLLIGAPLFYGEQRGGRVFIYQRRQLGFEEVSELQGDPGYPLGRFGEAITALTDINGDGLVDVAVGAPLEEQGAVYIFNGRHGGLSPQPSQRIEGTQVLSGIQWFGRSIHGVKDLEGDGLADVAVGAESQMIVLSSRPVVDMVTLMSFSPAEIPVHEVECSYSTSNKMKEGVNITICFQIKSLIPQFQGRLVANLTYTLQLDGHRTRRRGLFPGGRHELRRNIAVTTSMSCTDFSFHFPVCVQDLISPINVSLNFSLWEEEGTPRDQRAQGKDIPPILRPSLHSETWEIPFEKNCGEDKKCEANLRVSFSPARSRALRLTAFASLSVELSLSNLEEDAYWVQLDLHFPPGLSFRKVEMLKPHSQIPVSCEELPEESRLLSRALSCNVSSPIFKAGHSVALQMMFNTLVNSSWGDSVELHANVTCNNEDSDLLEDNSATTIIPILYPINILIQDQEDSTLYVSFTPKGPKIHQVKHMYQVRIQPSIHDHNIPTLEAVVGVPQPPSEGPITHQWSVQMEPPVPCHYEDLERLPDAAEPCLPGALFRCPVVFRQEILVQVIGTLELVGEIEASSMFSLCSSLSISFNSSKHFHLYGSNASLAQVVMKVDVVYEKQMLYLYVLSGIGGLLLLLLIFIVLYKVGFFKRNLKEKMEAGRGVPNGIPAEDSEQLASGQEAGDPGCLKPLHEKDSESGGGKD
Briefly: Inhibition of LFA1 expressed in human JY cells interaction with ICAM1-IG expressed in human HeLa cell monolayer after 45 mins by cell adhesion assay.

In BindingDB's records for doi:10.1021/np50113a004 (1994) one finds IC50 data, which are given here for three compounds.

Each structure is given as a SMILES string.

Compound `CC(C)(O)/C=C/C(=O)[C@@](C)(O)[C@H]1[C@H](O)C[C@@]2(C)[C@@H]3CC=C4[C@@H](C[C@H](O)C(=O)C4(C)C)[C@]3(C)C(=O)C[C@]12C` registered an IC50 in assay [1] of 1.36 µM. Consider `CC(C)(O)CCC(=O)[C@@](C)(O)C1[C@H](O)C[C@@]2(C)[C@@H]3CC=C4C(CC(=O)C(=O)C4(C)C)[C@]3(C)C(=O)C[C@]12C` (stereo partly drawn) [Cucurbitacin L], for which the half-maximal inhibitory concentration (IC50) against Integrin alpha-L was more than 50 µM.

At Integrin alpha-L, `CC(C)(O)C=CC(=O)[C@](C)(O)[C@H]1[C@H](O)C[C@@]2(C)[C@@H]3CC=C4[C@@H](CC(=O)C(=O)C4(C)C)[C@]3(C)C(=O)C[C@]12C` [NSC-521777] yielded an IC50 of 0.95 µM.

For orientation: IC50 means the point on the concentration scale where inhibition reaches its midpoint. Read a low IC50 as greater potency in that assay.
